Results: US10398142B2, “Polycationic amphiphiles as antimicrobial agents” (priority 2013, dated 2019)
Entries after “also recorded” stand apart in the source; their conditions may differ. Read-outs that look alike come from different tables or passages of the source. Marks after values point to notes of the source that are not given here.

Experiments:
[1] = test system: Enterococcus faecalis (OG1RF); experiment: Minimum inhibitory concentration (MIC), broth microdilution; type: cell-based; settings: read-out: MIC E. faecalis
Method: (§1) The term “minimum inhibitory concentration (MIC)” means the lowest concentration of an antimicrobial agent that will inhibit the visible growth of a microorganism after overnight incubation. MIC values against bacteria, for example, the Gram-positive Staphylococcus aureus and Enterococcus faecalis and the Gram-negative Escherichia coli and Pseudomonas aeruginosa were determined by standard methods.
(§2) With nearly three-dozen amphiphiles varying in structure and cationic nature synthesized, minimum inhibitory concentration (MIC) values against the Gram-positive Staphylococcus aureus and Enterococcus faecalis and the Gram-negative Escherichia coli and Pseudomonas aeruginosa were determined by standard methods. […] The commercially available antibacterial agent benzalkonium chloride (benzyldimethyldodecylammonium chloride, Bn,12) was tested for comparison. The broth microdilution for determining MIC values was performed as previously reported.
(§3) Different biological assays were performed. […] All cultures, with the exception of E. faecalis, were grown with shaking at 250 rpm.
(§4) Minimum inhibitory concentration (MIC) values against bacteria were measured using standard method. Compounds were serially diluted two-fold from an aqueous stock solution to yield twelve test concentrations. Overnight S. aureus, E. faecalis, E. coli, P. aeruginosa, CA-MRSA, and HA-MRSA cultures diluted to ca. 10^6 cfu/mL in Mueller-Hinton media and 100 μL were inoculated into each well of a U-bottom 96-well plate (BD Biosciences, BD351177) containing 100 μL of compound solution. Plates were incubated statically at 37° C. for 72 hours upon which time wells were evaluated visually for bacterial growth. The MIC was determined as the lowest concentration of compound resulting in no bacterial growth visible to the naked eye, based on the majority of three independent experiments. Positive and negative aqueous and media controls were conducted for each trial.

[2] = test system: Escherichia coli (MC4100); experiment: as above; type: cell-based; settings: read-out: MIC E. coli
Method: as §1, §2, §3, §4

[3] = test system: Pseudomonas aeruginosa (PAO1); experiment: as above; type: cell-based; settings: read-out: MIC P. aeruginosa
Method: as §1, §2, §3, §4

[4] = test system: Staphylococcus aureus MSSA (SH1000); experiment: as above; type: cell-based
Method: as §1, §2, §3, §4

CA-MRSA (USA300-0114) = experiment: as above; type: cell-based, Staphylococcus aureus; settings: for MIC: read-out: MIC CA-MRSA; for potency against CA-MRSA strain possessing qacA/R (in words): compared with MSSA
Method: as §3, §4

HA-MRSA (ATCC 33591) = experiment: as above; type: cell-based, Staphylococcus aureus; settings: for MIC: read-out: MIC HA-MRSA
Method: as §3, §4

[5] = test system: S. aureus (MSSA, SH1000) biofilms; experiment: Minimum biofilm eradication concentration (MBEC), regrowth assay; type: cell-based, Staphylococcus aureus; settings: for MBEC MSSA: Table 5, SH1000
From the text: (§5) A regrowth assay was used to establish the MBEC of a compound to evaluate the antibiofilm activity. See also H. Ceri, M. Olson, D. Morck, D. Storey, R. Read, A. Buret, B. Olson, Methods Enzymol. 2001, 337, 377.
(§6) Encouraged by the potency of the QACs against planktonic bacterial cells, the inventors then evaluated the efficacy of compound (12,2,12) against Staphylococcus aureus and Enterococcus faecalis biofilms. […] To both accurately evaluate the antibiofilm activity, a regrowth assay was utilized to establish the minimum biofilm eradication concentration (MBEC) of each compound.
(§7) Different biological assays were performed. For all biological assays, laboratory strains of methicillin-susceptible Staphylococcus aureus MSSA (SH1000), Enterococcus faecalis (OG1RF), Escherichia coli (MC4100), Pseudomonas aeruginosa (PAO1), community-acquired methicillin-resistant Staphylococcus aureus CA-MRSA (USA300-0114), and hospital-acquired methicillin-resistant Staphylococcus aureus HA-MRSA (ATCC 33591) were grown at 37° C. overnight from freezer stocks in 10 mL of the media indicated for each assay. All cultures, with the exception of E. faecalis, were grown with shaking at 250 rpm.
(§8) Minimum biofilm eradication concentration (MBEC) was also measured. To each well of a flat-bottomed 96-well plate (Corning 3370), 8 μL of overnight bacterial culture was brought to a volume of 200 μL with fresh media (BHI for S. aureus and MRSA, Todd Hewitt (TH) for E. faecalis). Plates were incubated statically for 24 hours at 37° C. to establish biofilms. After 24 hours, the wells were carefully emptied by inverting the plate and gently shaking. A pre-mixed solution of media and aqueous compound stock solution was added to each well and plates were incubated at 37° C. 16 hours after pre-established biofilms were treated with compound, the media from each well was removed, biofilms were washed three times with 200 μL PBS to remove planktonic cells, and biofilms were incubated overnight at 37° C. in 200 μL of fresh media to allow any viable cells to continue growing. The wells were then vigorously pipetted to resuspend the biofilm cells and the OD at 595 nm was measured using a plate reader (POLARstar Omega, BMG Labtech). Biofilms reaching a final OD of less than 0.1 were considered eradicated and the lowest concentration of antibiotic corresponded to the MBEC. Four replicates were completed for each concentration of compound as well as positive and negative controls.

E. faecalis biofilms = experiment: as above; type: cell-based, Enterococcus faecalis
From the text: as §5, §6, §7, §8

[6] = test system: CA-MRSA (USA300-0114) biofilms; experiment: as above; type: cell-based, Staphylococcus aureus; settings: Table 5; for MBEC CA-MRSA: USA300-0114
Method: as §5, §7, §8

[7] = test system: red blood cells (defibrinated sheep blood); experiment: Hemolysis assay (Lysis20); settings: for Lysis20: Table 4, concentration at which less than 20% of red blood cells are lysed
Method: Hemolysis assays (Lysis20) were performed according to the procedure detailed in Peng, L., DeSousa, J., Su, Z., Novak, B. M., Nevzorov, A. A., Garland, E. R., and Melander, C., Inhibition of Acinetobacter baumannii biofilm formation on a methacrylate polymer containing a 2-aminoimidazole subunit, Chem. Comm. 2011, 47, 4896-4898. Defibrinated sheep blood was purchased from Hemostat Labs (DSB 100). Compounds representative of each class were serially diluted in sterile PBS from aqueous stock solutions and incubated with resuspended blood cells. The OD of the final suspensions were measured directly using plate reader. TritonX (1% by volume) served as a positive control (100% lysis marker) and sterile PBS served as a negative control (0% lysis marker).
Lysis20 indicates the concentration of compound (in μM) at which less than 20% of red blood cells are lysed.

[8] = Table 3, read-out: MIC S. aureus
[9] = Table 4, SH1000, read-out: MIC MSSA
[10] = Table 2, pre-established biofilm, ± values varied between 50 and 100 μM for the six trials
[11] = Staphylococcus aureus, MSSA, Table 4, SH1000, read-out: MIC MSSA
[12] = Staphylococcus aureus, Table 4, USA300-0114
[13] = Staphylococcus aureus, Table 4, ATCC 33591

| MIC [4, 9] [µM] | MIC (CA-MRSA (USA300-0114); Table 4, USA300-0114) [µM] | MIC (HA-MRSA (ATCC 33591); Table 4, ATCC 33591) [µM] | Compound | MBEC MSSA [5] [µM] | MBEC E. faecalis (E. faecalis biofilms; Table 5) [µM] | MBEC CA-MRSA [6] [µM] | Lysis20 [7] [µM] | also measured |
| --- | --- | --- | --- | --- | --- | --- | --- | --- |
| 1 | 1 | 1 | CCCCCCCCCCCC[n+]1ccc(-c2ccc[n+](CCCCCCCCCCCC)c2)cc1.[Br-].[Br-] [PMQ-12,12] | 100 | 100 | 150 ± 50 | 8 |  |
| 8 | 16 | 16 | CCCCCCCCCCCC[n+]1cccc(-c2ccc[n+](Cc3ccccc3)c2)c1.[Br-].[Br-] [MQ-12,Bn] | >200 | >200 | >200 | 125 | prokaryotic selectivity (lytic profile vs MIC, in words) [7]: highest prokaryotic selectivity |
| 1 | 2 | 1 | CCCCCCCCCCCC[n+]1cccc(-c2ccc[n+](CCCCCCCCCCCC)c2)c1.[Br-].[Br-] [MQ-12,12] | 100 | 100 | 100 | 8 |  |

Second part, the compound before the results:

| Compound | MIC [4, 9] [µM] | MIC (CA-MRSA (USA300-0114); Table 4, USA300-0114) [µM] | MIC (HA-MRSA (ATCC 33591); Table 4, ATCC 33591) [µM] | MBEC MSSA [5] [µM] | MBEC E. faecalis (E. faecalis biofilms; Table 5) [µM] | MBEC CA-MRSA [6] [µM] | Lysis20 [7] [µM] | also measured |
| --- | --- | --- | --- | --- | --- | --- | --- | --- |
| CCCCCCCCCCCC[N+](C)(C)CCCCC[N+](C)(C)CCCCCCCCCCCC.[Br-].[Br-] [12,5,12] | 2 | 1 | 0.5 | 50 | 100 | 100 | 8 | MIC ([1]; Table 1): 1 µM; MIC ([1]; Table 3): 1 µM; MIC ([2]; Table 1): 1 µM; MIC ([2]; Table 3): 1 µM; MIC ([3]; Table 1): 4 µM; MIC ([3]; Table 3): 2 µM; MIC ([4]; Table 1, read-out: MIC S. aureus): 1 µM; MIC [4, 8]: 2 µM; MBEC S. aureus [5, 10]: 75 ± 25^a μM; MBEC E. faecalis (E. faecalis biofilms; [10]): 75 ± 25^a μM |
| C=CC[N+](C)(CC[N+](C)(C)CCCCCCCCCCCC)CC[N+](C)(C)CCCCCCCCCCCC.[Br-].[Br-].[Br-] [12,2,3A,2,12] | 2 | 1 | 1 | 50 | 75 ± 25 | 100 | 2 | MIC ([1]; Table 3): 2 µM; MIC ([2]; Table 3): 2 µM; MIC ([3]; Table 3): 4 µM; MIC [4, 8]: 2 µM |
| CCCCCCCCCCCC[N+](C)(C)CCC[N+](C)(CCC[N+](C)(C)CCCCCCCCCCCC)Cc1ccc(CCCCCCCC)cc1.[Br-].[Br-].[Br-] [12,3,Bn-8,3,12] | 2 | 2 | 1 | 200 | 200 | >200 | 8 | MIC ([1]; Table 3): 1 µM; MIC ([2]; Table 3): 1 µM; MIC ([3]; Table 3): 4 µM; MIC [4, 8]: 1 µM |
| CCCCCCCCCCCCCCCC[n+]1ccccc1.[Cl-] [Pyr,16, reference compound] | 0.5 | 16 | 1 | 50 | 50 | 200 | 8 | potency against CA-MRSA strain possessing qacA/R (in words) (CA-MRSA (USA300-0114)): decreased potency; decrease in efficacy against MRSA biofilms compared to MSSA ([6]; MBEC): four-fold decrease in efficacy |
| CCCCCCCCCC[N+](C)(C)CCCN(C)CCC[N+](C)(C)CCCCCCCCCC [10,3,0,3,10] |  |  |  | 150 ± 50 | 50 | 150 ± 50 | 32 | MIC [4, 11]: 1 µM; MIC (CA-MRSA (USA300-0114); [12]): 2 µM; MIC (HA-MRSA (ATCC 33591); [13]): 2 µM; prokaryotic selectivity (lytic profile vs MIC, in words) ([7]; among the multiQACs evaluated): highest prokaryotic selectivity |
| CCCCCCCCCCCC[n+]1ccc(-c2cc[n+](Cc3ccccc3)cc2)cc1 [PQ-12,Bn] |  |  |  | 200 | 200 | 200 | 125 | MIC ([4]; Staphylococcus aureus, MSSA, read-out: MIC MSSA): 4 µM; MIC (CA-MRSA (USA300-0114); Staphylococcus aureus): 32 µM; potency against CA-MRSA strain possessing qacA/R (in words) (CA-MRSA (USA300-0114)): elevated MICs; also recorded: decreased potency; MIC (HA-MRSA (ATCC 33591); Staphylococcus aureus): 16 µM; potency against HA-MRSA (in words) (HA-MRSA (ATCC 33591); compared with MSSA): elevated MICs; prokaryotic selectivity (lytic profile vs MIC, in words) ([7]; among the multiQACs evaluated): highest prokaryotic selectivity |
| CCCCCCCCCCCC[n+]1ccc(-c2cc[n+](CCCCCCCCCCCC)cc2)cc1.[Br-].[Br-] [PQ-12,12] | 1 | 1 | 0.5 | 200 | 200 | 100 | 8 |  |
| CCCCCCCCCC[N+](C)(C)CCC[N+](C)(CC)CCC[N+](C)(C)CCCCCCCCCC [10,3,2,3,10] |  |  |  | 200 | 100 | 150 ± 50 | 32 | MIC [4, 11]: 2 µM; MIC (CA-MRSA (USA300-0114); [12]): 2 µM; MIC (HA-MRSA (ATCC 33591); [13]): 2 µM; prokaryotic selectivity (lytic profile vs MIC, in words) ([7]; among the multiQACs evaluated): highest prokaryotic selectivity |
| CCCCCCCCCCCCCCCC[N+](C)(C)CCN(C)C.[Br-] [16,2,0] | 1 | 4 | 2 | 100 | 50 | >200 | 16 |  |
| CCCCCCCCCC[N+](C)(C)CCCCCCCCCC.[Cl-] [10,10, reference compound] | 1 | 4 | 2 | 150 ± 50 | >200 | ≥200 | 16 |  |
| CCCCCCCCCCCC[N+](C)(C)CCCN(C)C.[Br-] [12,3,0] | 4 | 8 | 4 | >200 | >200 | >200 | 32 |  |
